Target: T1, myristoylated NCS-1 (NCS-1^WT) (Homo sapiens, UniProt P62166)
T1 construct: gene NCS1; full-length, N-myristoylated by co-expressed yeast NMT in E. coli (pET22b+), sulfo-cyanine-3 maleimide labelled; unlabelled protein used as titrant
Test: fluorescence correlation spectroscopy, titration of PI liposomes with unlabelled protein
Format: binding
Settings: Ca2+ present (1 mM CaCl2), pH 8.0, 100 mM NaCl; multilamellar liposomes of brain PI; concentration is of the protein; highly cooperative; sulfo-cyanine-3 labelled protein; read-out: dissociation constant

T1 sequence (P62166 2-190): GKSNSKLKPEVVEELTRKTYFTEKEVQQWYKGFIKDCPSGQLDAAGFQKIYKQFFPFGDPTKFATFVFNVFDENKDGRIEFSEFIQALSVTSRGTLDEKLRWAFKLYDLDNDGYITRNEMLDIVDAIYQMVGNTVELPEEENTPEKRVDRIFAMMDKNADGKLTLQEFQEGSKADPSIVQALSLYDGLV

Substance: phosphatidylinositol
- Kd: 3 µM

— article PMC7072451, “Membrane Binding of Neuronal Calcium Sensor-1: Highly Specific Interaction with Phosphatidylinositol-3-Phosphate” (Biomolecules, 2020)
